# Key:
# Assay type in all cases: physicochemical
# [1] = Oxidation of NACA on exposure to air; conditions: exposed to air
# Excerpt: These efforts to increase purity focused on the major impurities as measured by HPLC, namely, diNACA, DTT and cyclic DTT. […] Ethanol and methyl t-butyl Ether (MTBE) used in the reduction and solvent-exchange were degassed in an effort to reduce diNACA.
# [2] = Solubilization of NACA in ORA-SWEET and water
# Experimental: A study was conducted to determine the solubilization of NACA in ORA-SWEET® (Ora-Sweet is a commercially available syrup vehicle containing water, sucrose, glycerin, sorbitol, flavoring, buffering agents (citric acid and/or sodium phosphate), methyl paraben and potassium sorbate, pH 4.2 manufactured by Paddock Laboratories, Inc., Minneapolis, Minnesota). HPLC equipment and glass containers and stirrers were utilized.
# Therefore, NACA was dissolved in 50 mL water followed by 50 mL Ora-Sweet, shaken to dissolve in an opaque plastic bottle with closure and provided to subject for self-administration (oral ingestion).
# [3] = Micronization of NACA and stability of the 1% NACA formulation
# Excerpt: The relation between micronization conditions and an initial increase of the degradation product diNACA was further investigated. […] Therefore, the zirconium oxide milling process was further investigated and successfully optimized regarding particle size distribution, milling parameters and impurity profile for the 1% NACA formulation. […] The particle size distribution by laser diffraction analysis was ×10=1.3 μm, ×50=4.7 μm and ×90=12.3 μm. Batches were prepared and found to be stable for up to 4 weeks at ambient temperature.
# [4] = Stability of NACA/excipient mixtures (excipient screening); conditions: NACA/excipient mixtures after 4 weeks at 40° C./75% RH
# Experimental: NACA Tablets, 250 mg, are packaged in high density polyethylene (HDPE) bottles with foil induction seal and a white polyproplyene screw-top closure. Excipients used for the formulation meet compendial standards. Lactose functions as a filler. Microcrystalline cellulose functions as a filler. Croscarmellose Sodium functions as a disintegrant. Stearic Acid functions as a lubricant. Excipients were screened by assessing the stability of NACA in mixtures with each excipient.
# [5] = Stability and dissociation of NACA/urea co-crystal (secondary co-crystal screen)
# Experimental: NACA/Urea Co-crystal. A primary co-crystal screen was conducted where 28 potential co-crystal formers (CCFs) were screened (Table 18) in 6 solvent systems under 2 process relevant crystallization conditions, namely, thermal maturation and evaporation. A NACA/urea co-crystal was identified (FIG. 15). […] NMR analysis confirmed an approximate stoichiometric content of urea contained within the material. The material appeared to be stable under ambient conditions and elevated temperature (80° C.) but unstable when stored at high humidity for prolonged periods, showing degradation to the diNACA. […] An additional DSC experiment with post-XRPD analysis confirmed that the exothermic event observed during the DSC cooling cycle is a recrystallization to NACA.
compound,measurement,setting,value
CC(=O)N[C@@H](CS)C(N)=O,Oxidation on exposure to air,[1],Oxidation of NACA occurs
same,Stirring time required to achieve a solution,[2]; NACA at 80 mg/ml in ORA-SWEET,20 to 30 min
same,Dissolution in water,"[2]; water, shaking for 30 seconds",readily dissolved
same,Change of degradation product diNACA on micronization,[3]; stainless steel grinding jars,time dependent increase of the degradation product diNACA
same,Change of degradation product diNACA on micronization,[3]; zirconium oxide jars and balls,did not lead to an initial increase of the degradation product diNACA
CC(=O)N[C@H](CS)C(N)=O,% Assay,[4],95.3%
CC(=O)N[C@@H](CS)C(N)=O.NC(N)=O [NACA/urea pattern 1 material],Stability under ambient conditions and elevated temperature,[5]; ambient conditions and 80° C.,stable
same,Dissociation in water and high water activity mixtures,[5]; deionized water and solvent/water mixtures with a high water activity,found to dissociate
same,Dissociation in organic solvents and low water activity mixtures,[5]; organic solvents and solvent/water mixtures with low water activity,No signs of dissociation
same,Stability at high humidity,"[5]; stored at high humidity for prolonged periods, degradation to diNACA",unstable

# — patent publication US12662449B2 (NACUITY PHARMACEUTICALS, INC., priority 2017, dated 2026)
